# Where “and” joins values, the source holds several entries; their conditions need not be identical. Identical values can stand only once. Toxic doses and inconclusive results are not listed. Square brackets hold non-standard residues; d marks the D form. Peptide text beside a SMILES is read from it. * marks the point of attachment. ξ: configuration not given here. Cbz = O=C(OCc1ccccc1)*; ξP = O=C(O)C1CCCN1
# System: L1210 leukemia ip in BDF1 mice, survival T/C
# Test: NCI In Vivo Anticancer Drug Screen. Data for tumor model L1210 Leukemia (intraperitoneal) in B6D2F1 (BDF1) mice
# Conditions: endpoint: mean survival time, higher = longer survival
# Outline: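 Each compound was tested against a transplantable tumor grown in mice. The endpoint was survival, with treated animals benchmarked against vehicle controls as a simple ratio.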
# [1] = dose: 100.0 mg/kg/injection, schedule: Q01DX009 (ip), vehicle: Klucel (hydroxypropylcellulose) (HPC)
# [2] = dose: 100.0 mg/kg/injection, schedule: Q04DX003 (ip), vehicle: Klucel (hydroxypropylcellulose) (HPC)
# [3] = dose: 200.0 mg/kg/injection, schedule: Q01DX009 (ip), vehicle: Klucel (hydroxypropylcellulose) (HPC)
# [4] = dose: 200.0 mg/kg/injection, schedule: Q04DX003 (ip), vehicle: Klucel (hydroxypropylcellulose) (HPC)
# [5] = dose: 400.0 mg/kg/injection, schedule: Q01DX009 (ip), vehicle: Klucel (hydroxypropylcellulose) (HPC)
# [6] = dose: 400.0 mg/kg/injection, schedule: Q04DX003 (ip), vehicle: Klucel (hydroxypropylcellulose) (HPC)
# [7] = dose: 200.0 mg/kg/injection, schedule: Q01DX001 (ip), vehicle: carboxymethylcellulose (CMC)
smiles,measurement,setting,value
CC(C)OC(CCCl)c1ccccc1 (stereo unspecified),T/C,[1],91 % of control
same,T/C,[2],96 % of control
same,T/C,[3],96 % of control
same,T/C,[4],102 % of control
same,T/C,[5],95 % of control
same,T/C,[6],96 % of control
CCOC(=O)C1C2OC(=O)C(C(=O)C2CN(CCCl)CCCl)C1C1CC=C(CC2=CCC(C3C4C(=O)OC(C(CN(CCCl)CCCl)C4=O)C3C(=O)OCC)CC2)CC1 (stereo unspecified),T/C,"dose: 6.25 mg/kg/injection, schedule: Q01DX009 (ip), vehicle: Klucel (hydroxypropylcellulose) (HPC)",108 % of control
same,T/C,"dose: 12.5 mg/kg/injection, schedule: Q01DX009 (ip), vehicle: Klucel (hydroxypropylcellulose) (HPC)",116 % of control
same,T/C,"dose: 25.0 mg/kg/injection, schedule: Q01DX009 (ip), vehicle: Klucel (hydroxypropylcellulose) (HPC)",158 % of control
same,T/C,"dose: 33.25 mg/kg/injection, schedule: Q04DX003 (ip), vehicle: Klucel (hydroxypropylcellulose) (HPC)",109 % of control
same,T/C,"dose: 50.0 mg/kg/injection, schedule: Q01DX009 (ip), vehicle: Klucel (hydroxypropylcellulose) (HPC)",114 % of control and 120 % of control
same,T/C,"dose: 66.5 mg/kg/injection, schedule: Q04DX003 (ip), vehicle: Klucel (hydroxypropylcellulose) (HPC)",109 % of control
same,T/C,[2],114 % of control
same,T/C,"dose: 133.0 mg/kg/injection, schedule: Q04DX003 (ip), vehicle: Klucel (hydroxypropylcellulose) (HPC)",109 % of control
same,T/C,[4],120 % of control
same,T/C,"dose: 266.0 mg/kg/injection, schedule: Q04DX003 (ip), vehicle: Klucel (hydroxypropylcellulose) (HPC)",117 % of control
O=C(O)NC1(c2ccccc2)OC1c1ccccc1 (stereo unspecified),T/C,"dose: 50.0 mg/kg/injection, schedule: Q01DX001 (ip), vehicle: saline with Tween-80",115 % of control
same,T/C,"dose: 100.0 mg/kg/injection, schedule: Q01DX001 (ip), vehicle: saline with Tween-80",98 % of control
same,T/C,"dose: 200.0 mg/kg/injection, schedule: Q01DX001 (ip), vehicle: saline with Tween-80",94 % of control
Cc1cc(Cl)c(C)cc1Cl,T/C,"dose: 100.0 mg/kg/injection, schedule: Q01DX009 (ip), vehicle: saline sonified",107 % of control
same,T/C,"dose: 100.0 mg/kg/injection, schedule: Q04DX003 (ip), vehicle: saline sonified",100 % of control
same,T/C,"dose: 200.0 mg/kg/injection, schedule: Q01DX009 (ip), vehicle: saline sonified",110 % of control
same,T/C,"dose: 200.0 mg/kg/injection, schedule: Q04DX003 (ip), vehicle: saline sonified",101 % of control
same,T/C,"dose: 400.0 mg/kg/injection, schedule: Q01DX009 (ip), vehicle: saline sonified",102 % of control
same,T/C,"dose: 400.0 mg/kg/injection, schedule: Q04DX003 (ip), vehicle: saline sonified",94 % of control
COc1c(CO)c2c(c(OC)c1OC)-c1ccc(OC)c(=O)cc1[C@@H](NC(C)=O)CC2,T/C,"dose: 33.0 mg/kg/injection, schedule: Q01DX015 (ip), vehicle: saline",122 % of control
NC(N)=N/N=C(/C=C/c1ccccc1)c1ccc(Cl)cc1,T/C,"dose: 15.0 mg/kg/injection, schedule: Q01DX Z (ip), vehicle: carboxymethylcellulose (CMC)",92 % of control
same,T/C,"dose: 30.0 mg/kg/injection, schedule: Q01DX Z (ip), vehicle: carboxymethylcellulose (CMC)",92 % of control
same,T/C,"dose: 60.0 mg/kg/injection, schedule: Q01DX Z (ip), vehicle: carboxymethylcellulose (CMC)",95 % of control and 91 % of control
same,T/C,"dose: 120.0 mg/kg/injection, schedule: Q01DX Z (ip), vehicle: carboxymethylcellulose (CMC)",101 % of control and 88 % of control
same,T/C,"dose: 120.0 mg/kg/injection, schedule: Q01DX Z (oral), vehicle: carboxymethylcellulose (CMC)",96 % of control
same,T/C,"dose: 240.0 mg/kg/injection, schedule: Q01DX Z (ip), vehicle: carboxymethylcellulose (CMC)",90 % of control
same,T/C,"dose: 240.0 mg/kg/injection, schedule: Q01DX Z (oral), vehicle: carboxymethylcellulose (CMC)",100 % of control
same,T/C,"dose: 480.0 mg/kg/injection, schedule: Q01DX Z (oral), vehicle: carboxymethylcellulose (CMC)",105 % of control
same,T/C,"dose: 960.0 mg/kg/injection, schedule: Q01DX Z (oral), vehicle: carboxymethylcellulose (CMC)",102 % of control
CNC(=O)c1ccc(NC(=O)Nc2ccc(C3=NCCCN3)cc2)cc1NC(=O)Nc1ccc(C2=NCCCN2)cc1,T/C,"dose: 11.5 mg/kg/injection, schedule: Q01DX Z (ip), vehicle: carboxymethylcellulose (CMC)",108 % of control
same,T/C,"dose: 23.0 mg/kg/injection, schedule: Q01DX Z (ip), vehicle: carboxymethylcellulose (CMC)",107 % of control
same,T/C,"dose: 46.0 mg/kg/injection, schedule: Q01DX Z (ip), vehicle: carboxymethylcellulose (CMC)",166 % of control
same,T/C,"dose: 62.0 mg/kg/injection, schedule: Q01DX Z (oral), vehicle: carboxymethylcellulose (CMC)",111 % of control
same,T/C,"dose: 92.0 mg/kg/injection, schedule: Q01DX Z (ip), vehicle: carboxymethylcellulose (CMC)",177 % of control
same,T/C,"dose: 125.0 mg/kg/injection, schedule: Q01DX Z (oral), vehicle: carboxymethylcellulose (CMC)",109 % of control
same,T/C,"dose: 250.0 mg/kg/injection, schedule: Q01DX Z (oral), vehicle: carboxymethylcellulose (CMC)",108 % of control
same,T/C,"dose: 500.0 mg/kg/injection, schedule: Q01DX Z (oral), vehicle: carboxymethylcellulose (CMC)",108 % of control
O=C(Nc1ccc(F)cc1)Oc1ccc(OCc2ccccc2)cc1,T/C,"dose: 100.0 mg/kg/injection, schedule: Q01DX001 (ip), vehicle: carboxymethylcellulose (CMC)",95 % of control
same,T/C,"dose: 100.0 mg/kg/injection, schedule: Q01DX009 (ip), vehicle: carboxymethylcellulose (CMC)",99 % of control and 103 % of control
same,T/C,"dose: 100.0 mg/kg/injection, schedule: Q04DX002 (ip), vehicle: carboxymethylcellulose (CMC)",93 % of control and 98 % of control
same,T/C,[7],101 % of control
same,T/C,"dose: 200.0 mg/kg/injection, schedule: Q01DX009 (ip), vehicle: carboxymethylcellulose (CMC)",95 % of control and 99 % of control
same,T/C,"dose: 200.0 mg/kg/injection, schedule: Q04DX002 (ip), vehicle: carboxymethylcellulose (CMC)",98 % of control and 100 % of control
same,T/C,"dose: 400.0 mg/kg/injection, schedule: Q01DX001 (ip), vehicle: carboxymethylcellulose (CMC)",101 % of control
same,T/C,"dose: 400.0 mg/kg/injection, schedule: Q01DX009 (ip), vehicle: carboxymethylcellulose (CMC)",95 % of control and 91 % of control
same,T/C,"dose: 400.0 mg/kg/injection, schedule: Q04DX002 (ip), vehicle: carboxymethylcellulose (CMC)",96 % of control and 100 % of control
Cc1ccc(Cl)cc1NC(=O)COc1ccc(Cl)cc1,T/C,[1],88 % of control
same,T/C,[2],98 % of control
same,T/C,[3],94 % of control
same,T/C,[4],88 % of control
same,T/C,[5],91 % of control
same,T/C,[6],103 % of control
CCOc1c(Br)cc(N=Cc2ccc(N(CCCl)CCCl)c(OC)c2)cc1Br,T/C,"dose: 44.0 mg/kg/injection, schedule: Q01DX001 (ip), vehicle: carboxymethylcellulose (CMC)",120 % of control
same,T/C,"dose: 150.0 mg/kg/injection, schedule: Q01DX001 (ip), vehicle: carboxymethylcellulose (CMC)",123 % of control
same,T/C,[7],104 % of control
CC1CC(C)OC2(CCCc3ccccc32)O1 (stereo unspecified),T/C,"dose: 100.0 mg/kg/injection, schedule: Q04DX002 (ip), vehicle: saline with Tween-80",104 % of control
same,T/C,"dose: 200.0 mg/kg/injection, schedule: Q04DX002 (ip), vehicle: saline with Tween-80",100 % of control
same,T/C,"dose: 400.0 mg/kg/injection, schedule: Q04DX002 (ip), vehicle: saline with Tween-80",104 % of control
CC(C)(C)OC1C=CCCC1 (stereo unspecified),T/C,"dose: 100.0 mg/kg/injection, schedule: Q04DX003 (ip), vehicle: saline with Tween-80",96 % of control
same,T/C,"dose: 200.0 mg/kg/injection, schedule: Q04DX003 (ip), vehicle: saline with Tween-80",96 % of control
same,T/C,"dose: 400.0 mg/kg/injection, schedule: Q04DX003 (ip), vehicle: saline with Tween-80",96 % of control
CNC(=O)c1ccccc1-c1ccccc1C(=O)NC,T/C,"dose: 100.0 mg/kg/injection, schedule: Q01DX001 (ip), vehicle: other",102 % of control
same,T/C,"dose: 200.0 mg/kg/injection, schedule: Q01DX001 (ip), vehicle: other",102 % of control
same,T/C,"dose: 400.0 mg/kg/injection, schedule: Q01DX001 (ip), vehicle: other",98 % of control
CCOC(=O)N(C(=S)Nc1ccccc1)c1nc(C)cs1,T/C,"dose: 100.0 mg/kg/injection, schedule: Q01DX001 (ip), vehicle: gum acacia",100 % of control
same,T/C,"dose: 200.0 mg/kg/injection, schedule: Q01DX001 (ip), vehicle: gum acacia",111 % of control
same,T/C,"dose: 400.0 mg/kg/injection, schedule: Q01DX001 (ip), vehicle: gum acacia",97 % of control
COC(=O)C1CCCN1C(=O)CNC(=O)OCc1ccccc1 (stereo not drawn) (Cbz-Gly-[ξP]-OMe),T/C,"dose: 100.0 mg/kg/injection, schedule: Q04DX003 (ip), vehicle: saline",97 % of control
same,T/C,"dose: 200.0 mg/kg/injection, schedule: Q04DX003 (ip), vehicle: saline",101 % of control
same,T/C,"dose: 400.0 mg/kg/injection, schedule: Q04DX003 (ip), vehicle: saline",95 % of control
